# Where two headings read alike, the source gives them in different places.
# Key:
# [1] = tested on: SARS Coronavirus 2 recombinant with NanoLuc (SARS-CoV2-NLuc); assay: organism not typed; format: cell-based; conditions: 48 h
# in vitro = format: cell-based; conditions: human
# Protocol: Cytotoxicity of the compounds was determined in uninfected cells using the cell viability reagent in a similar fashion as described before for other cell types (Cihlar et al., Antimicrob Agents Chemother. 2008, 52(2):655-65). HEp-2 (1.5×10^3 cells/well) and MT-4 (2×10^3 cells/well) cells were plated in 384-well plates and incubated with the appropriate medium containing 3-fold serially diluted compound ranging from 15 nM to 100,000 nM. Cells were cultured for 4-5 days at 37° C. Following the incubation, the cells were allowed to equilibrate to 25° C., and cell viability was determined by adding Cell-Titer Glo viability reagent. The mixture was incubated for 10 min, and the luminescence signal was quantified using an Envision plate reader. Untreated cell and cells treated at 2 μM puromycin (Sigma, St. Louis, MO) serve as 100% and 0% cell viability control, respectively.
# [2] = tested on: Respiratory syncytial virus recombinant with luciferase (RSV-Luc5); assay: microbe, parasite or virus in culture; format: cell-based; conditions: human respiratory syncytial virus, NHBE, 72 h, read-out: RSV NHBE EC50
# [3] = tested on: Respiratory syncytial virus recombinant with luciferase (RSV-Luc5); assay: microbe, parasite or virus in culture; format: cell-based; conditions: human respiratory syncytial virus, HEp-2, 72 h, read-out: RSV Hep2 EC50
# [4] = parameters: species or system Sprague-Dawley rats; conditions: male, Sprague-Dawley, rat, in vivo, po; for Reference Compound A F %: 1 mg/kg; for Cmax / Reference Compound A AUCinf.: 8.1 mg/kg
# Protocol: Ester Reference Compound, Compound 3 and Compound 6 were dosed orally by gavage to male Sprague-Dawley rats (n=3/group); Ester Reference Compound at 6 mg/kg in 2.5% Dimethyl sulfoxide; 10% Kolliphor HS-15; 10% Labrasol; 2.5% Propylene glycol and 75% water, pH 2.5; Compound 3 at 6.65 mg/kg in 10% Dimethyl sulfoxide; 40% Kolliphor HS-15; 40% Labrasol and 10% Propylene glycol and Compound 6 at 8.1 mg/kg in 2.5% Dimethyl sulfoxide; 10% Kolliphor HS-15; 10% Labrasol; 2.5% Propylene glycol and 75% water, pH 2.8. Blood samples were collected into pre-chilled collection tubes containing K2EDTA and processed to plasma at 10 time points over a span of pre-dose to 24 h post-administration. Plasma samples were subject to protein precipitation with a 12.5-fold volume of methanol, vortexed and centrifuged. Supernatants were transferred and evaporated to dryness under nitrogen and reconstituted with 5% acetonitrile in water. Separation was achieved on a Phenomenex Synergi Polar-RP column, a mobile phase A of 10 mM ammonium formate with 0.1% formic acid in water and a mobile phase B of 0.1% formic acid in acetonitrile with a step-wise linear gradient from 5 to 95% mobile phase B. An LC-MS/MS method was used to measure the concentrations of the Reference Compound A and either Ester Reference Compound, Compound 3 or Compound 6 in plasma.
Compound,EC50 [1],CC50 (in vitro),EC50 [2],EC50 [3],Reference Compound A F % [4],Cmax [4],Reference Compound A AUCinf. [4]
"COC1O[C@H]2[C@@H](O1)[C@](C#N)(c1ccc3c(N)ncnn13)O[C@@H]2COC(=O)C(C)C (stereo partly drawn) [Compound 4, ((3aR,4R,6R,6aR)-6-(4-aminopyrrolo[2,1-f][1,2,4]triazin-7-yl)-6-cyano-2-methoxytetrahydrofuro[3,4-d][1,3]dioxol-4-yl)methyl isobutyrate]",> 50000 nM,> 5 µM,–,–,–,–,–
"CCCC(=O)Nc1ncnn2c([C@]3(C#N)O[C@H](COC(C)=O)[C@@H](OC(C)=O)[C@H]3OC(C)=O)ccc12 [Compound 8, (2R,3R,4R,5R)-5-(acetoxymethyl)-2-(4-butyramidopyrrolo[2,1-f][1,2,4]triazin-7-yl)-2-cyanotetrahydrofuran-3,4-diyl diacetate]",3140 nM,–,405 nM,–,–,–,–
"CCCCCC(=O)Nc1ncnn2c([C@]3(C#N)O[C@H](COC(=O)C(C)C)[C@@H](O)[C@H]3O)ccc12 [Compound 10, ((2R,3S,4R,5R)-5-cyano-5-(4-hexanamidopyrrolo[2,1-f][1,2,4]triazin-7-yl)-3,4-dihydroxytetrahydrofuran-2-yl)methyl isobutyrate]",1220 nM,> 50 µM,–,–,–,–,–
"CCCC(=O)Nc1ncnn2c([C@]3(C#N)O[C@H](COC(=O)C(C)C)[C@@H](O)[C@H]3O)ccc12 [Compound 9, ((2R,3S,4R,5R)-5-(4-butyramidopyrrolo[2,1-f][1,2,4]triazin-7-yl)-5-cyano-3,4-dihydroxytetrahydrofuran-2-yl)methyl isobutyrate]",1950 nM,> 50 µM,–,529 nM,–,–,–
"CC(C)C(=O)OC[C@H]1O[C@@](C#N)(c2ccc3c(=N)n(COP(=O)(O)O)cnn23)[C@H](O)[C@@H]1O [Compound 6, ((2R,3S,4R,5R)-5-cyano-3,4-dihydroxy-5-(4-imino-3-((phosphonooxy)methyl)-3,4-dihydropyrrolo[2,1-f][1,2,4]triazin-7-yl)tetrahydrofuran-2-yl)methyl isobutyrate]",3650 nM,50 µM,3550 nM,719 nM,54.4%,3080 nM,6.86 µM·h
"CC(C)C(=O)OC[C@H]1O[C@@](C#N)(c2ccc3c(N)ncnn23)[C@@H]2OC(=O)O[C@@H]21 [Compound 3, ((3aR,4R,6R,6aR)-6-(4-aminopyrrolo[2,1-f][1,2,4]triazin-7-yl)-6-cyano-2-oxotetrahydrofuro[3,4-d][1,3]dioxol-4-yl)methyl isobutyrate]",1750 nM,50 µM,512 nM,330 nM,84.7%,2280 nM,10.7 µM·h
"CC(C)C(=O)OC[C@H]1O[C@@](C#N)(c2ccc3c(N)ncnn23)[C@H](O)[C@@H]1O [Ester Reference Compound, reference compound]",–,–,–,–,–,2100 nM,7.57 µM·h
"CC(C)C(=O)OC[C@H]1O[C@@](C#N)(c2ccc3c(=N)n(COP(=O)(O)OCc4ccccc4)cnn23)[C@H](O)[C@@H]1O [Compound 5, ((2R,3S,4R,5R)-5-(3-((((benzyloxy)(hydroxy)phosphoryl)oxy)methyl)-4-imino-3,4-dihydropyrrolo[2,1-f][1,2,4]triazin-7-yl)-5-cyano-3,4-dihydroxytetrahydrofuran-2-yl)methyl isobutyrate]",> 50000 nM,> 50 µM,–,–,–,–,–
"CC(=O)Nc1ncnn2c([C@]3(C#N)O[C@H](COC(C)=O)[C@@H](OC(C)=O)[C@H]3OC(C)=O)ccc12 [Compound 7, (2R,3R,4R,5R)-2-(4-acetamidopyrrolo[2,1-f][1,2,4]triazin-7-yl)-5-(acetoxymethyl)-2-cyanotetrahydrofuran-3,4-diyl diacetate]",5540 nM,–,932 nM,–,–,–,–
"CCCCCCCC(=O)Nc1ncnn2c([C@]3(C#N)O[C@H](COC(=O)C(C)C)[C@@H](O)[C@H]3O)ccc12 [Compound 11, ((2R,3S,4R,5R)-5-cyano-3,4-dihydroxy-5-(4-octanamidopyrrolo[2,1-f][1,2,4]triazin-7-yl)tetrahydrofuran-2-yl)methyl isobutyrate]",935 nM,42.4 µM,188 nM,–,–,–,–
